Columns and labels:
LTED cells [1] = test: Apoptosis ELISA (Cell Death Detection Kit), LTED cells; type: cell-based, human; settings: three day treatment
Description: FIG. 6 is a bar graph portraying data representing the induction of apoptosis in MCF-7 and LTED cells by FTS. Eighty thousand MCF-7 and LTED cells were plated into each well of 12-well plates in their culture media. Two days later, the cells were treated with FTS for 3 days. Apoptosis was measured using a Cell Death Detection Kit from Roche Molecular Biochemicals. Parallel plates subjected to identical treatment were prepared for cell counting. The results were expressed as the values of optical density at 405 nm per 10,000 cells.
Applicants postulated that these cells might also have become sensitized to the pro-apoptotic effects of estradiol. To test this hypothesis, an ELISA assay was used to assess apoptosis and to compare the effects of estradiol in wild-type and LTED cells. […] The presence of apoptosis in LTED cells was confirmed by the measurement of annexin V and the use of time-lapse microscopy.
The effect of a three day treatment with FTS on apoptosis in MCF-7 and LTED cells was examined using the ELISA assay for quantitation. […] LTED cells were much more sensitive than MCF-7 cells to the apoptotic effects of FTS.

mTOR-raptor complex = tested on: T1, mTOR-raptor complex; test: Coimmunoprecipitation of raptor with mTOR, compound added to cell extracts or immune complexes; type: binding; settings: extracts of nontransfected cells
T1 construct: rows headed: amount of endogenous raptor that coimmunoprecipitated with mTOR; other: extracts of nontransfected cells
Description: 293T cells were transfected with pcDNA3 alone (Vec.) or with a combination of pcDNA3AU1-mTOR, pcDNA33HA-Raptor, and pcDNA33HA-mLST8. Extracts of the cells were incubated with increasing concentrations of FTS before AU1-mTOR was immunoprecipated. Samples of the immune complexes were incubated with [γ-^32P]ATP and recombinant [His^6]PHAS-I, then subjected to SDS-PAGE and transferred to an immobilon membrane. After obtaining a phosphorimage of the membrane to detect ^32P-PHAS-I, the membrane was immunoblotted with PThr^36/45 antibodies. Other samples of the immune complexes were subjected to SDS-PAGE and immunoblots were prepared with antibodies to the HA epitope or to mTOR (see FIG. 13A). Extracts of nontransfected 293T cells were incubated with increasing concentrations of FTS before mTOR was immunoprecipated with mTAb1. A control immunoprecipitation was conducted using nonimmune IgG (NI). Immune complexes were subjected to SDS-PAGE and immunoblots were prepared with antibodies to mLST8, mTOR, and raptor.
Samples of extracts from 293T cells overexpressing AU1-mTOR, HA-raptor, and HA-mLST8 were incubated for 1 h with increasing concentrations of FTS (●, ▴, ▪) or GTS (∘, Δ, □) before immunoprecipitations were conducted with anti-AU1 antibodies. mTOR kinase activity (●, ∘) was determined by measuring ^32P incorporation into [His^6]PHAS-I in immune complex kinases assays performed with [γ-^32P]ATP (see FIG. 14A). The relative amounts of HA-raptor (▴, Δ) and HA-mLST8 (▪, □) that coimmunoprecipitated with AU1-mTOR were determined after immunoblotting with anti-HA antibodies (see FIG. 14B). The results (mean values+S.E. from 5 experiments) are expressed as percentages of the mTOR activity (FIG. 14A) or coimmunoprecipitating proteins (FIG. 14B) from samples incubated without FTS or GTS, and have been corrected for the amounts of AU1-mTOR immunoprecipitated.
293T cells were transfected with pcDNA3 alone (Vec.) or with a combination of pcDNA3AU1-mTOR, pcDNA33HARaptor, and pcDNA33HA-mLST8. AU1-mTOR was immunoprecipitated and samples of the washed immune complexes were at incubated […] for 30 min with no inhibitors or with the following: caffeine (1 mM), FTS (50 μM), LY294002 (10 μM), rapamycin (1 μM) plus FKBP12 (10 μM), and 1 μM wortmannin. To prevent destruction of wortmannin, incubations were conducted in the absence of thiol reducing agents. Samples of the immune complexes were incubated for 10 min with 10 mM MnCl2, 1 mM [γ-^32P]ATP, and 50 μg/ml [His^6]PHAS-I to assess mTOR activity. Other samples were rinsed twice, subjected to SDS-PAGE, and immunoblotted with anti-HA and anti-AU1 antibodies to determine the amounts of HA-raptor and HA-mLST8 associated with AU1-mTOR. The relative amounts of ^32P incorporated into PHAS-I were determined by phosphorimaging (see FIG. 15B).

LTED cells [2] = test: Growth of LTED cells (cell number); type: cell-based, human
Description: FIG. 3 represents the effect of FTS on the growth of MCF-7, LTED, and MCF-10A cells. Sixty thousand cells were plated into each well of 6-well plates. Two days later, the cells were treated in triplicate for five days with FTS at indicated concentrations. The results (mean±S.E.) are expressed as percentage of the vehicle control.
FIG. 4 represents the effect of FTS on E2 stimulated growth of MCF-7 and LTED cells. Thirty thousand cells were plated into each well of 6-well plates. Two days later, the cells were re-fed with IMEM containing 5% DCC-FBS. After another two days, cells were treated in triplicate with estradiol (10^−10 M) plus various concentrations of FTS for five days. In LTED cells, fulvestrant (10^−9 M) was included in all wells to block the effect of residual estrogen in the culture. The results (mean±S.E.) are expressed as percentage of cell number from the wells containing E2.
The effect of FTS on growth of breast cancer cells was examined in two different cell lines: MCF-7 wild type cells which represent a model for untreated breast cancer and LTED cells as a model of cells adapting to endocrine treatment. Cells were grown in their culture media and treated with FTS for five days. […] The effect of FTS on E2-stimulated growth of MCF-7 and LTED cells was the examined. […]

Compound: CC(C)=CCC/C(C)=C/CC/C(C)=C/CSc1ccccc1C(=O)O [FTS, farnesylthiosalicylic acid]
- induction of apoptosis (LTED cells [1]; FTS 75 μM): dramatic increase in apoptosis
- induction of apoptosis (LTED cells [1]; FTS 20 and 50 μM): did not induce apoptosis
- amount of endogenous raptor that coimmunoprecipitated with mTOR (mTOR-raptor complex): decreased
- E2-stimulated growth (LTED cells [2]; E2 10^−10 M in the presence of fulvestrant 10^−9 M): inhibited
- basal growth (LTED cells [2]; culture media, five days): dose-dependently inhibited

Source: patent publication US20070037887A1, “Blockade of mtor to prevent a hormonal adaptive response” (University of Virginia Patent Foundation, priority 2003, published 2007)
